Measurements: ChEMBL document CHEMBL1201862, “PubChem BioAssay data set” (2004)
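Grown in 96-well plates, cells were treated for 48 hours with each compound at five concentrations. Insufficient inhibition: endpoint recorded as highest concentration tested. GI50 is the concentration that inhibits growth by half.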 Active and inactive are the calls of the source. Cut-off read from the data, not from the text of the source: active = GI50 up to about 1.1 µM and inactive = higher.

Experiments:
Assay in all cases: NCI anticancer screen, dose series, 48 h
SK-OV-3 = tested on: SK-OV-3
MOLT-4 = tested on: MOLT-4
SR = tested on: SR
CAKI-1 = tested on: CAKI-1
COLO 205 = tested on: COLO 205
T47D = tested on: T47D
SF-539 = tested on: SF-539
NCI-H460 = tested on: NCI-H460
SK-MEL-5 = tested on: SK-MEL-5
786-0 = tested on: 786-0
MDA-N = tested on: MDA-N
UACC-62 = tested on: UACC-62
M14 = tested on: M14
TK-10 = tested on: TK-10
HCT-15 = tested on: HCT-15
RXF 393 = tested on: RXF 393
KM12 = tested on: KM12
EKVX = tested on: EKVX
UACC-257 = tested on: UACC-257
SN12C = tested on: SN12C
SW-620 = tested on: SW-620
CCRF-CEM = tested on: CCRF-CEM
SK-MEL-2 = tested on: SK-MEL-2
HCT-116 = tested on: HCT-116
K562 = tested on: K562
BT-549 = tested on: BT-549
SF-268 = tested on: SF-268
NCI-H226 = tested on: NCI-H226
OVCAR-8 = tested on: OVCAR-8
SNB-19 = tested on: SNB-19
MDA-MB-435 = tested on: MDA-MB-435
HOP-92 = tested on: HOP-92
A498 = tested on: A498
HL-60 = tested on: HL-60
PC-3 = tested on: PC-3
SNB-75 = tested on: SNB-75
U-251 = tested on: U-251
SK-MEL-28 = tested on: SK-MEL-28
IGROV-1 = tested on: IGROV-1
Malme-3M = tested on: Malme-3M
A549 = tested on: A549
NCI/ADR-RES = tested on: NCI/ADR-RES
SF-295 = tested on: SF-295
DU-145 = tested on: DU-145
ACHN = tested on: ACHN
OVCAR-4 = tested on: OVCAR-4
UO-31 = tested on: UO-31
OVCAR-5 = tested on: OVCAR-5
RPMI-8226 = tested on: RPMI-8226
MDA-MB-231 = tested on: MDA-MB-231
OVCAR-3 = tested on: OVCAR-3
Hs-578T = tested on: Hs-578T
NCI-H23 = tested on: NCI-H23
MCF7 = tested on: MCF7
HOP-62 = tested on: HOP-62
HCC 2998 = tested on: HCC 2998
NCI-H522 = tested on: NCI-H522
HT-29 = tested on: HT-29
LOX IMVI = tested on: LOX IMVI

## c1ccc(C2C3=C(c4ccccc4CC3)N3c4cc5c(cc4=NC34CCCCC24)Nc2ccccc2N=5)cc1 (centres undefined)
SK-OV-3
  GI50: > 10 µM (inactive)
MOLT-4
  GI50: 2.4 µM (inactive)
SR
  GI50: 1.11 µM (active)
CAKI-1
  GI50: > 10 µM (inactive)
COLO 205
  GI50: > 10 µM (inactive)
T47D
  GI50: 7.53 µM (inactive)
SF-539
  GI50: > 10 µM (inactive)
NCI-H460
  GI50: 5.14 µM (inactive)
SK-MEL-5
  GI50: > 10 µM (inactive)
786-0
  GI50: 7.14 µM (inactive)
MDA-N
  GI50: 5.83 µM (inactive)
UACC-62
  GI50: > 10 µM (inactive)
M14
  GI50: 6.61 µM (inactive)
TK-10
  GI50: > 10 µM (inactive)
HCT-15
  GI50: 8.39 µM
RXF 393
  GI50: 6.59 µM (inactive)
KM12
  GI50: > 10 µM (inactive)
EKVX
  GI50: > 10 µM (inactive)
UACC-257
  GI50: > 10 µM (inactive)
SN12C
  GI50: > 10 µM (inactive)
SW-620
  GI50: 9.64 µM (inactive)
CCRF-CEM
  GI50: 1.67 µM (inactive)
SK-MEL-2
  GI50: > 10 µM (inactive)
HCT-116
  GI50: 5.55 µM (inactive)
K562
  GI50: 5.27 µM (inactive)
BT-549
  GI50: > 10 µM (inactive)
SF-268
  GI50: > 10 µM (inactive)
NCI-H226
  GI50: 6.58 µM (inactive)
OVCAR-8
  GI50: > 10 µM (inactive)
SNB-19
  GI50: > 10 µM (inactive)
MDA-MB-435
  GI50: 7.28 µM (inactive)
HOP-92
  GI50: 7.64 µM (inactive)
A498
  GI50: 7.38 µM (inactive)
HL-60
  GI50: 3.77 µM (inactive)
PC-3
  GI50: 6.92 µM (inactive)
SNB-75
  GI50: 9.27 µM (inactive)
U-251
  GI50: > 10 µM (inactive)
SK-MEL-28
  GI50: > 10 µM (inactive)
IGROV-1
  GI50: > 10 µM (inactive)
Malme-3M
  GI50: > 10 µM (inactive)
A549
  GI50: > 10 µM (inactive)
NCI/ADR-RES
  GI50: 6.79 µM (inactive)
SF-295
  GI50: > 10 µM (inactive)
DU-145
  GI50: > 10 µM (inactive)
ACHN
  GI50: 7.26 µM (inactive)
OVCAR-4
  GI50: 5.79 µM (inactive)
UO-31
  GI50: 6.55 µM (inactive)
OVCAR-5
  GI50: > 10 µM (inactive)
RPMI-8226
  GI50: 5.11 µM (inactive)
MDA-MB-231
  GI50: 9.79 µM (inactive)
OVCAR-3
  GI50: > 10 µM (inactive)
Hs-578T
  GI50: > 10 µM (inactive)
NCI-H23
  GI50: 9.2 µM (inactive)
MCF7
  GI50: 7.69 µM (inactive)
HOP-62
  GI50: > 10 µM (inactive)
HCC 2998
  GI50: > 10 µM (inactive)
NCI-H522
  GI50: 1 µM (active)
HT-29
  GI50: 7.87 µM (inactive)
LOX IMVI
  GI50: 8.04 µM (inactive)
